In ChEMBL document CHEMBL5696441 (Nat Chem Biol, 2011):

Assays:
[1] = molecular target: Proto-oncogene tyrosine-protein kinase Src (Homo sapiens) (UniProt P12931); test: Inhibition of human GST/His-tagged SRC assessed as residual activity at 1 uM using PolyEY as substrate in presence of 33P-ATP by ProQinase assay relative to control
[2] = test system: Epidermal growth factor receptor (Homo sapiens), P00533 [UNDEFINED MUTATION]; test: Inhibition of EGFR L747-T751del/Sins mutant (unknown origin) assessed as remaining activity at 1 uM by Kinome scan method relative to control
[3] = molecular target: BDNF/NT-3 growth factors receptor (Homo sapiens) (UniProt Q16620); test: Inhibition of human TRKB assessed as residual activity at 1 uM using polyEY as substrate in presence of 33P-ATP by ProQinase assay relative to control
[4] = molecular target: Mitogen-activated protein kinase kinase kinase 14 (Homo sapiens) (UniProt Q99558); test: Inhibition of human NIK assessed as residual activity at 1 uM using RBER-CHKtide as substrate in presence of 33P-ATP by ProQinase assay relative to control
Chain of Mitogen-activated protein kinase kinase kinase 14 (Homo sapiens) (Q99558 whole entry, looked up): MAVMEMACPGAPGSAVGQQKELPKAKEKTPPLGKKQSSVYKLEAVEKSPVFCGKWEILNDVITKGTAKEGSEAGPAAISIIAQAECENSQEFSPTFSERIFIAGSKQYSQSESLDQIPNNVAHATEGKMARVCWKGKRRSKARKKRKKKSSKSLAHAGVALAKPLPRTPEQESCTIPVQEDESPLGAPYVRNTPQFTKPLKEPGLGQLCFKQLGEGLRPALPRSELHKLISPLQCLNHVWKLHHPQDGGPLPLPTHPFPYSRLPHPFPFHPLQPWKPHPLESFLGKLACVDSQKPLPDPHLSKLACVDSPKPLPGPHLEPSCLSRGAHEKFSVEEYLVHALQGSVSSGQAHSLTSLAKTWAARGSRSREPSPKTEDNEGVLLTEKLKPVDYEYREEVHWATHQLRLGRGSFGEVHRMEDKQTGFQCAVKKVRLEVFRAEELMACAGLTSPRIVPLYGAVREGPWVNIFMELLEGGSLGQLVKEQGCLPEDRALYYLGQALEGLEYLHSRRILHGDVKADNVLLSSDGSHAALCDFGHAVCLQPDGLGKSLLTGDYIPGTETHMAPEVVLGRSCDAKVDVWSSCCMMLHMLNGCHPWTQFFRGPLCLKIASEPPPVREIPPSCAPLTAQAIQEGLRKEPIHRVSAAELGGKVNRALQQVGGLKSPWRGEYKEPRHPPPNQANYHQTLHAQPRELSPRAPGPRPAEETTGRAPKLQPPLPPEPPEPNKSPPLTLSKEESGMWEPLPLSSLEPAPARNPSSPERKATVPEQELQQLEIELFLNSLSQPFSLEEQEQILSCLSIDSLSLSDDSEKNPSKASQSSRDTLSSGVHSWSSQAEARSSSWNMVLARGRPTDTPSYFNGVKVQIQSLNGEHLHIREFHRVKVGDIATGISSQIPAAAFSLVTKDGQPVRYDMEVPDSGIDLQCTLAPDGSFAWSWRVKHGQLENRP

[5] = test system: Epidermal growth factor receptor (Homo sapiens), P00533 [G719C]; test: Inhibition of EGFR G719C mutant (unknown origin) assessed as remaining activity at 1 uM by Kinome scan method relative to control
[6] = molecular target: Mitogen-activated protein kinase kinase kinase 9 (Homo sapiens) (UniProt P80192); test: Inhibition of human MAP3K9 assessed as residual activity at 1 uM using RBER-GSK3 as substrate in presence of 33P-ATP by ProQinase assay relative to control
[7] = molecular target: Serine/threonine-protein kinase MARK2 (Homo sapiens) (UniProt Q7KZI7); test: Inhibition of human MARK2 assessed as residual activity at 1 uM using RBER-CHKtide as substrate in presence of 33P-ATP by ProQinase assay relative to control
[8] = molecular target: SRSF protein kinase 1 (Homo sapiens) (UniProt Q96SB4); test: Inhibition of human SRPK1 assessed as residual activity at 1 uM using MBP as substrate in presence of 33P-ATP by ProQinase assay relative to control
[9] = molecular target: STE20-like serine/threonine-protein kinase (Homo sapiens) (UniProt Q9H2G2); test: Inhibition of human SLK assessed as residual activity at 1 uM using RB-S6P as substrate in presence of 33P-ATP by ProQinase assay relative to control
Chain of STE20-like serine/threonine-protein kinase (Homo sapiens) (Q9H2G2 whole entry, looked up): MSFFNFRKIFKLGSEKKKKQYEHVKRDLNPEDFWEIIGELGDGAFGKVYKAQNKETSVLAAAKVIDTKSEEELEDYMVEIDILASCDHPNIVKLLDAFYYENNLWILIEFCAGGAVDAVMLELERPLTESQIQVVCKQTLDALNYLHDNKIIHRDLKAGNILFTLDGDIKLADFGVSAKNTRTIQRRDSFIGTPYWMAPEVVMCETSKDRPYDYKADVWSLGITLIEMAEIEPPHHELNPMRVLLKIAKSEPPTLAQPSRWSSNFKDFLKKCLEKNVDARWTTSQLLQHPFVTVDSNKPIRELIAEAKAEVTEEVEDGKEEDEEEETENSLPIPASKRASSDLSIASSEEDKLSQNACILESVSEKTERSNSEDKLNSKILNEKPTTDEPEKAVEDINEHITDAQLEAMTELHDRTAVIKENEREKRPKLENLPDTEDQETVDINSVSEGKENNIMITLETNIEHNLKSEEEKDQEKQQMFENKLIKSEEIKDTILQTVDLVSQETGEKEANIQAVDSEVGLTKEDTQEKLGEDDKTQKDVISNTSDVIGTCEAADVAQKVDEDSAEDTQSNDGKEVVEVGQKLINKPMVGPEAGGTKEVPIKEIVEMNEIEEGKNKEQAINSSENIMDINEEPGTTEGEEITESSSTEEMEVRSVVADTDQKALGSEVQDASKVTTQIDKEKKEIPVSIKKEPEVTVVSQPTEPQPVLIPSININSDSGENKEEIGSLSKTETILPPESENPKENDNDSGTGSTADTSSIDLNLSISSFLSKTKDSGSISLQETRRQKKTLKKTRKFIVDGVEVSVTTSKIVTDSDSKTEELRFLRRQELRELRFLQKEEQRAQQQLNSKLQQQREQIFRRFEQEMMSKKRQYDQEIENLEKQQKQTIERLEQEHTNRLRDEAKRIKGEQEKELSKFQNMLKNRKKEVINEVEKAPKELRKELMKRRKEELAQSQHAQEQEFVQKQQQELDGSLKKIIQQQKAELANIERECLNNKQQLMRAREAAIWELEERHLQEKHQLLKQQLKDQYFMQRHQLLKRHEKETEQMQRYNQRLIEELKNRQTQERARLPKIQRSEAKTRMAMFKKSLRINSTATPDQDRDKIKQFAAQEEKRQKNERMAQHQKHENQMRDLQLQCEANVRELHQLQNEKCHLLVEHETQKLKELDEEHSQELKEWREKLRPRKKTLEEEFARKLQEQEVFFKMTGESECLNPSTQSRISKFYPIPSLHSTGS

[10] = molecular target: Tyrosine-protein kinase receptor TYRO3 (Homo sapiens) (UniProt Q06418); test: Inhibition of TYRO3 (unknown origin) assessed as remaining activity at 1 uM by Kinome scan method relative to control
[11] = Anti-inflammatory activity against human derived medium respond PBMC cells assessed as inhibition in stimulated IL-4 cytokine release incubated for 2 hrs in the presence of LPS/SEB/aCD28 by Luminex based sandwich immunoassay; assay type: functional, cell-based
[12] = molecular target: Tyrosine-protein kinase FRK (Homo sapiens) (UniProt P42685); test: Inhibition of human FRK assessed as residual activity at 1 uM using PolyEY as substrate in presence of 33P-ATP by ProQinase assay relative to control
[13] = molecular target: Serine/threonine-protein kinase Sgk2 (Homo sapiens) (UniProt Q9HBY8); test: Inhibition of human SGK2 assessed as residual activity at 1 uM using RBER-GSK3(14-27) as substrate in presence of 33P-ATP by ProQinase assay relative to control
[14] = Anti-inflammatory activity against human derived medium respond PBMC cells assessed as inhibition in stimulated IL-6 cytokine release incubated for 2 hrs in the presence of LPS/SEB/aCD28 by Luminex based sandwich immunoassay; assay type: functional, cell-based
[15] = molecular target: 3-phosphoinositide-dependent protein kinase 1 (Homo sapiens) (UniProt O15530); test: Inhibition of human PDK1 assessed as residual activity at 1 uM using bio-4xCHKT as substrate in presence of 33P-ATP by ProQinase assay relative to control
[16] = molecular target: Serine/threonine-protein kinase PAK 4 (Homo sapiens) (UniProt O96013); test: Inhibition of PAK4 (unknown origin) assessed as remaining activity at 1 uM by Kinome scan method relative to control
[17] = molecular target: Casein kinase I isoform gamma-3 (Homo sapiens) (UniProt Q9Y6M4); test: Inhibition of CSNK1G3 (unknown origin) assessed as remaining activity at 1 uM by Kinome scan method relative to control
[18] = molecular target: Rho-associated protein kinase 2 (Homo sapiens) (UniProt O75116); test: Inhibition of ROCK2 (unknown origin) assessed as remaining activity at 1 uM by Kinome scan method relative to control
[19] = Anti-inflammatory activity against human derived high respond PBMC cells assessed as inhibition in stimulated IL-5 cytokine release at 10 uM incubated for 2 hrs in the presence of LPS/SEB/aCD28 by Luminex based sandwich immunoassay relative to control; assay type: functional
[20] = molecular target: Calcium/calmodulin-dependent protein kinase type 1D (Homo sapiens) (UniProt Q8IU85); test: Inhibition of CAMK1D (unknown origin) assessed as remaining activity at 1 uM by Kinome scan method relative to control
[21] = molecular target: Platelet-derived growth factor receptor alpha (Homo sapiens) (UniProt P16234); test: Inhibition of human PDGFRalpha assessed as residual activity at 1 uM using Poly(Ala,Glu,Lys,Tyr)6:2:5:1 as substrate in presence of 33P-ATP by ProQinase assay relative to control
[22] = molecular target: Mitogen-activated protein kinase kinase kinase 20 (Homo sapiens) (UniProt Q9NYL2); test: Inhibition of human ZAK assessed as residual activity at 1 uM using MBP as substrate in presence of 33P-ATP by ProQinase assay relative to control
Chain of Mitogen-activated protein kinase kinase kinase 20 (Homo sapiens) (Q9NYL2 2-800 limits assumed): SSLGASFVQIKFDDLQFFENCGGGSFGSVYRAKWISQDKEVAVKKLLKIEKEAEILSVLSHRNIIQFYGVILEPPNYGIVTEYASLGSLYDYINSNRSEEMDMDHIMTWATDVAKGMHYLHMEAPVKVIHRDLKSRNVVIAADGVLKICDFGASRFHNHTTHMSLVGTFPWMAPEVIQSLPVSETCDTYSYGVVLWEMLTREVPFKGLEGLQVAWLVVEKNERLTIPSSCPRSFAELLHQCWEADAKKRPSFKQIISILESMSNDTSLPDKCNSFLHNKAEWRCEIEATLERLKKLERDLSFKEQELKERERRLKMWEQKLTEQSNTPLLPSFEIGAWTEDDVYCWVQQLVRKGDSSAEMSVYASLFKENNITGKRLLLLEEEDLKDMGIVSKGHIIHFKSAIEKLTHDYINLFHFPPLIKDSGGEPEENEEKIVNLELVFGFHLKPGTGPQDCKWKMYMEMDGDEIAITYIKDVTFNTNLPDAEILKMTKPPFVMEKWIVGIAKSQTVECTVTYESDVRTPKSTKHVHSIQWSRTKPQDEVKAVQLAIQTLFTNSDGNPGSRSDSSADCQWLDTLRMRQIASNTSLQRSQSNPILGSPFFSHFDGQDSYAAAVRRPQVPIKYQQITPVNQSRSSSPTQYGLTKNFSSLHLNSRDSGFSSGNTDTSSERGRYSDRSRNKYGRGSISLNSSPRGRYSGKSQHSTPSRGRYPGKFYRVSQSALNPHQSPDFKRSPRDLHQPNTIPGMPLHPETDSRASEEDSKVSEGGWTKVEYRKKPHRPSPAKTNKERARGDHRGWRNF

[23] = molecular target: Phosphatidylinositol 4-phosphate 5-kinase type-1 alpha (Homo sapiens) (UniProt Q99755); test: Inhibition of PIP5K1A (unknown origin) assessed as remaining activity at 1 uM by Kinome scan method relative to control
Chain of Phosphatidylinositol 4-phosphate 5-kinase type-1 alpha (Homo sapiens) (Q99755 whole entry): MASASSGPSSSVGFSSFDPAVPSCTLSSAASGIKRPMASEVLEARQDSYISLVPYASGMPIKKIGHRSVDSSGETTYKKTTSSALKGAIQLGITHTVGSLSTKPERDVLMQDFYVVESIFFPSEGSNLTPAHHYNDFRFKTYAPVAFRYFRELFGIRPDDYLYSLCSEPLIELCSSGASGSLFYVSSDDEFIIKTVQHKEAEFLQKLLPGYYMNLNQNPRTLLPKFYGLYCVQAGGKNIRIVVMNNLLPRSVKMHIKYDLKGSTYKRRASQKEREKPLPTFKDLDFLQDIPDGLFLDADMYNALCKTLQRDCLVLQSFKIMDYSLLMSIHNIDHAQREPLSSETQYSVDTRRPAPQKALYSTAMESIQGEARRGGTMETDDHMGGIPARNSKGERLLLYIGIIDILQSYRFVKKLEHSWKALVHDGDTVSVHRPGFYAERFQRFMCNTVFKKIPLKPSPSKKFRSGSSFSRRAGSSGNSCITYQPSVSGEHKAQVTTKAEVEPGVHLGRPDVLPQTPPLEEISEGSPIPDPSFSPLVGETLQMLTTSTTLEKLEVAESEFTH

[24] = molecular target: Ribosomal protein S6 kinase alpha-4 (Homo sapiens) (UniProt O75676); test: Inhibition of human RPS6KA4 assessed as residual activity at 1 uM using RBER-CHKtide as substrate in presence of 33P-ATP by ProQinase assay relative to control
[25] = test system: Epidermal growth factor receptor (Homo sapiens), P00533 [L858R,T790M]; test: Inhibition of EGFR L858R/T790M mutant (unknown origin) assessed as remaining activity at 1 uM by Kinome scan method relative to control
[26] = molecular target: Maternal embryonic leucine zipper kinase (Homo sapiens) (UniProt Q14680); test: Inhibition of human MELK assessed as residual activity at 1 uM using RBER-CHKtide as substrate in presence of 33P-ATP by ProQinase assay relative to control
[27] = molecular target: Ribosomal protein S6 kinase alpha-6 (Homo sapiens) (UniProt Q9UK32); test: Inhibition of human RPS6KA6 assessed as residual activity at 1 uM using RBER-GSK3(14-27) as substrate in presence of 33P-ATP by ProQinase assay relative to control
Chain of Ribosomal protein S6 kinase alpha-6 (Homo sapiens) (Q9UK32 whole entry): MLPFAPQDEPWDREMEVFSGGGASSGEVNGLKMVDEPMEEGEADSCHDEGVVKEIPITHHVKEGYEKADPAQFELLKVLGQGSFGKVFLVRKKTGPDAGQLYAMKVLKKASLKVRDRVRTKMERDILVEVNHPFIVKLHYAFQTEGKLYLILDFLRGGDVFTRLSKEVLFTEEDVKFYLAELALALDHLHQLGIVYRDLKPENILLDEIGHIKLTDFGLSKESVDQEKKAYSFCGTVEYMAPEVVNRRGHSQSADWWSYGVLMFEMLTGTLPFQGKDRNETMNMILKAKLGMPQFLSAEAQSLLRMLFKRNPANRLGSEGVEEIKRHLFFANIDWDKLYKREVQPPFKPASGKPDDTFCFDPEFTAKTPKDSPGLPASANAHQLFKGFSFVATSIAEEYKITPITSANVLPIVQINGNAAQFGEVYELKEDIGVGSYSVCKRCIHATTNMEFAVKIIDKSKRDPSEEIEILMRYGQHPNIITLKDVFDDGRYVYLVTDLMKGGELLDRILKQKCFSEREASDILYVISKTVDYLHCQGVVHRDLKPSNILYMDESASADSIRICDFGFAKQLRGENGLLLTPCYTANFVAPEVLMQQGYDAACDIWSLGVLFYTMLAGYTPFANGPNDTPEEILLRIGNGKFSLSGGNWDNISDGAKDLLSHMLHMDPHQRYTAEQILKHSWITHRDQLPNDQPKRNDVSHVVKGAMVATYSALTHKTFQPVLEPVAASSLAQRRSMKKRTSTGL

Chain of Proto-oncogene tyrosine-protein kinase Src (Homo sapiens) (P12931 2-536 limits assumed): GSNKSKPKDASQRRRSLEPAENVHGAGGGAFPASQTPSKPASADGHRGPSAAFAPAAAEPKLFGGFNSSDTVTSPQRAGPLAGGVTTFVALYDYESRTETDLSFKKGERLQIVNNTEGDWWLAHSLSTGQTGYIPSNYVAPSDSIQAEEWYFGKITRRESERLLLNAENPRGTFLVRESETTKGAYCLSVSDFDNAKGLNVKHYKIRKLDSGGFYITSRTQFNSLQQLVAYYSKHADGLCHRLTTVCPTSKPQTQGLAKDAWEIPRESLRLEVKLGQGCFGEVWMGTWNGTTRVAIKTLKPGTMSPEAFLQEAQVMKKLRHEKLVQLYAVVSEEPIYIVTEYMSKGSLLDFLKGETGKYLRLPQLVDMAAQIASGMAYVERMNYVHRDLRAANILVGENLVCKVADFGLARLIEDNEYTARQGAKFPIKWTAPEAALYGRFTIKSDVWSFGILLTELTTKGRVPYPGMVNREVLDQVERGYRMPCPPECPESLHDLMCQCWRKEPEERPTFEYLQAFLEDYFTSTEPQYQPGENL

With `O=C1c2ccc(Nc3ccc(F)cc3F)cc2CCc2ccc(OC[C@H](O)CO)cc21` [Skepinone-L] the Activity [1] was 119%, the Activity [2] was 98% and the Activity [3] was 77%. It also gave an Activity [4] of 96%, an Activity [5] of 81% and an Activity [6] of 90%. For the same molecule, the Activity [7] was 105%, the Activity [8] was 100% and the Activity [9] was 39%. For the same molecule, the Activity [10] was 100%, the IC50 [11] was “Not Active” and the Activity [12] was 111%. The Activity [13] was 89%, the IC50 [14] was 0.78 µM and the Activity [15] was 97%. For the same molecule, the Activity [16] was 100%, the Activity [17] was 100% and the Activity [18] was 100%. It also gave an inhibition at 10 µM [19] of 50%, an Activity [20] of 99% and an Activity [21] of 91%. The Activity [22] was 98%, the Activity [23] was 100% and the Activity [24] was 107%. It also gave an Activity [25] of 100%, an Activity [26] of 81% and an Activity [27] of 85%.
